What was measured:
[1] = test system: Human gastric cancer line NCI-N87 cells; experiment: Antitumor test (2), NCI-N87 subcutaneous transplant in nude mice; assay type: in vivo, nude mouse; details: 10 mg/kg intravenously on Day 7; FIG. 4
Experimental: Mouse: 5- to 6-week-old female nude mice (Charles River Laboratories Japan, Inc.) were acclimatized for 4 to 7 days under SPF conditions before use in the experiment. The mice were fed with sterilized solid feed (FR-2, Funabashi Farms Co., Ltd) and given sterilized tap water (prepared by the addition of 5 to 15 ppm sodium hypochlorite solution). Assay and calculation expression: In all studies, the major axis and minor axis of a tumor were measured twice a week by using an electronic digital caliper ([…] Corp.), and the tumor volume (mm^3) was calculated. The calculation expression is as shown below. […] Human gastric cancer line NCI-N87 cells purchased from ATCC (American Type Culture Collection) were suspended in physiological saline, and 1×10^7 cells were subcutaneously transplanted to the right side of the body of each female nude mouse (Day 0), and the mice were randomly grouped on Day 7. […] An untreated group was established as a control group.

[2] = test system: Human breast cancer line JIMT-1 cells; experiment: Antitumor test (3), JIMT-1 subcutaneous transplant in nude mice; assay type: in vivo, nude mouse; details: 10 mg/kg intravenously on Days 12 and 19; FIG. 5
Experimental: (§2) Assay and calculation expression: In all studies, the major axis and minor axis of a tumor were measured twice a week by using an electronic digital caliper (CD-15CX, Mitutoyo Corp.), and the tumor volume (mm^3) was calculated. The calculation expression is as shown below. Tumor volume(mm^3)=½×Major axis (mm)×[Minor axis (mm)]^2
(§3) All of the antibody-drug conjugates and the antibody were diluted with physiological saline (Otsuka Pharmaceutical Factory, Inc.) and used at a volume of 10 mL/kg for intravenous administration to the tail vein of each mouse.
Human breast cancer line JIMT-1 cells purchased from DSMZ (Deutsche Sammlung von Mikroorganismen und Zellkulturen GmbH) were suspended in physiological saline, and 3×10^6 cells were subcutaneously transplanted to the right side of the body of each female nude mouse (Day 0), and the mice were randomly grouped on Day 12. […] A physiological saline administration group was established as a control group.

[3] = test system: breast cancer ST910 tumor low expressing HER2; experiment: Antitumor test (7), patient-derived breast cancer ST910 in nude mice; assay type: in vivo, nude mouse; details: 10 mg/kg intravenously on Day 0; HER2 score 1+; FIG. 9
Experimental: (§1) Assay and calculation expression: The major axis and minor axis of tumor were measured twice a week by using an electronic digital caliper, and the tumor volume (mm^3) was calculated. The calculation expression is as shown below.

[4] = test system: esophageal cancer CTG-0137 tumor highly expressing HER2; experiment: Antitumor test (11), patient-derived esophageal cancer CTG-0137 in nude mice; assay type: in vivo, nude mouse; details: 10 mg/kg intravenously on Day 0; HER2 score 3+; FIG. 13
Experimental: as §1

[5] = test system: non-small cell lung cancer CTG-0860 tumor moderately expressing HER2; experiment: Antitumor test (9), patient-derived non-small cell lung cancer CTG-0860 in nude mice; assay type: in vivo, nude mouse; details: 10 mg/kg intravenously on Day 0; HER2 score 2+; FIG. 11
Experimental: as §1

[6] = test system: breast cancer ST225 tumor moderately expressing HER2; experiment: Antitumor test (6), patient-derived breast cancer ST225 in nude mice; assay type: in vivo, nude mouse; details: 10 mg/kg intravenously on Day 0; HER2 score 2+; FIG. 8
Experimental: as §1

[7] = test system: bile duct cancer CTG-0927 tumor highly expressing HER2; experiment: Antitumor test (10), patient-derived bile duct cancer CTG-0927 in nude mice; assay type: in vivo, nude mouse; details: 10 mg/kg intravenously on Day 0; HER2 score 3+; FIG. 12
Experimental: as §1

[8] = test system: colorectal cancer CTG-0401 tumor low or moderately expressing HER2; experiment: Antitumor test (8), patient-derived colorectal cancer CTG-0401 in nude mice; assay type: in vivo, nude mouse; details: 10 mg/kg intravenously on Day 0; HER2 score 1+ or 2+; FIG. 10
Experimental: as §1

[9] = test system: Human pancreatic cancer line Capan-1 cells weakly expressing HER2; experiment: Antitumor test (4), Capan-1 solid tumor in nude mice; assay type: in vivo, nude mouse; details: 10 mg/kg intravenously on Day 20; tumor with low HER2 expression; FIG. 6
Experimental: as §2, §3
Human pancreatic cancer line Capan-1 cells (ATCC) weakly expressing HER2 were suspended in physiological saline, and 4×10^7 cells were subcutaneously transplanted to the right side of the body of each female nude mouse to generate Capan-1 solid tumor. Thereafter, this solid tumor was maintained at several passages by transplantation to female nude mice and used in this test. […]

[10] = test system: Human ovarian cancer line SK-OV-3 cells highly expressing HER2; experiment: Antitumor test (12), SK-OV-3 solid tumor in nude mice; assay type: in vivo, nude mouse; details: 10 mg/kg intravenously on Day 0, FIG. 14
Experimental: as §2, §3
Human ovarian cancer line SK-OV-3 cells highly expressing HER2 purchased from ATCC were suspended in physiological saline, and 4×10^7 cells were subcutaneously transplanted to the right side of the body of each female nude mouse to prepare SK-OV-3 solid tumor. Thereafter, this solid tumor was maintained at several passages by transplantation to female nude mice and used in this test. […]

[11] = Self-degradation of aminal structure of released drug derivative; assay type: physicochemical

Row | Compound | antitumor effect (tumor volume), NCI-N87 [1] | growth of the JIMT-1 tumor (tumor volume) [2] | growth of the breast cancer ST910 tumor (tumor volume) [3] | growth of the esophageal cancer CTG-0137 tumor (tumor volume) [4] | growth of the non-small cell lung cancer CTG-0860 tumor (tumor volume) [5] | growth of the breast cancer ST225 tumor (tumor volume) [6] | growth of the bile duct cancer CTG-0927 tumor (tumor volume) [7] | growth of the colorectal cancer CTG-0401 tumor (tumor volume) [8] | growth of the Capan-1 tumor (tumor volume) [9] | growth of the SK-OV-3 tumor (tumor volume) [10] | stability of the aminal structure; releases HO—CH2—C(═O)—(NH-DX) [11]
1 | trastuzumab emtansine | tumor regression | did not inhibit the growth of the JIMT-1 tumor | did not inhibit the growth | remarkably inhibited the growth of the tumor | did not inhibit the growth | remarkably inhibited the growth of the tumor | inhibited the growth of the tumor | did not inhibit the growth | did not inhibit the growth of the Capan-1 tumor | remarkably inhibited the growth of the tumor | –
2 | CC[C@@]1(O)C(=O)OCc2c1cc1n(c2=O)Cc2c-1nc1cc(F)c(C)c3c1c2[C@@H](NC(=O)COCN)CC3 [NH2—CH2—O—CH2—C(═O)—(NH-DX)] | – | – | – | – | – | – | – | – | – | – | undergoes a self-degradation

Reference: US11584800B2, “Method of treating cancer comprising administration of anti-HER2 antibody-drug conjugate” (DAIICHI SANKYO COMPANY, LIMITED, priority 2014, dated 2023)
